Among the data in BindingDB's records for doi:10.1021/jm010853h (Sapienza University of Rome, 2001) are IC50 values, retold here.

This assay deals with T1, Gag-Pol polyprotein [588-1027]/[588-1147] (Human immunodeficiency virus 1, UniProt P04585).
T1 construct: 588-1027; 588-1147
The assay can be described thus: HIV-1 RT Assay. The conditions noted are these: pH 7.8; 37 °C.

Where only a bound is given, the exact number is not on record here.

In turn, `CCC(c1ccccc1)c1cc(=O)[nH]c(SC2CCCC2)n1` (stereo unspecified) [2-(cyclopentylsulfanyl)-6-(1-phenylpropyl)-3,4-dihydropyrimidin-4-one] displayed an IC50 of more than 10 µM.

The IC50 is the concentration at which inhibition is half-maximal. Read a low IC50 as inhibition by little substance.
